From patent publication US10053417B2, “Neprilysin inhibitors” (THERAVANCE BIOPHARMA R&D IP, LLC, priority 2013, dated 2018) come the findings set out here.

This assay concerns the target T1, human NEP (Homo sapiens, UniProt P08473).
T1 construct: purchased R&D Systems, Minneapolis, Minn; 1182-ZN
Description: In vitro enzyme inhibition assay, inhibitor potency at human NEP (Assay 1). Particulars: recombinant human NEP; fluorogenic peptide substrate 10 μM; 37° C.; values given as ranges. It is filed as biochemical. As to the method:
The inhibitory activities of compounds at human and rat neprilysin (EC 3.4.24.11; NEP) and human angiotensin converting enzyme (ACE) were determined using in vitro assays as described below.
Recombinant human NEP and recombinant human ACE were obtained commercially (R&D Systems, Minneapolis, Minn., catalog numbers 1182-ZN and 929-ZN, respectively). The fluorogenic peptide substrate Mca-D-Arg-Arg-Leu-Dap-(Dnp)-OH (Medeiros et al. (1997) Braz. J. Med. Biol. Res. 30:1157-62; Anaspec, San Jose, Calif.) and Abz-Phe-Arg-Lys(Dnp)-Pro-OH (Araujo et al. (2000) Biochemistry 39:8519-8525; Bachem, Torrance, Calif.) were used in the NEP and ACE assays respectively.
The assays were performed in 384-well white opaque plates at 37° C. using the fluorogenic peptide substrates at a concentration of 10 μM in Assay Buffer (NEP: 50 mM HEPES, pH 7.5, 100 mM NaCl, 0.01% polyethylene glycol sorbitan monolaurate (Tween-20), 10 μM ZnSO4; ACE: 50 mM HEPES, pH 7.5, 100 mM NaCl, 0.01% Tween-20, 1 μM ZnSO4).
Test compounds were assayed over the range of concentrations from […] to 20 μM. Test compounds were added to the enzymes and incubated for 30 minute at 37° C. prior to initiating the reaction by the addition of substrate. Reactions were terminated after 20 minutes of incubation at 37° C. by the addition of glacial acetic acid to a final concentration of 3.6% (v/v).
Plates were read on a fluorometer with excitation and emission wavelengths set to 320 nm and 405 nm, respectively. Inhibition constants were obtained by nonlinear regression of the data using the equation (GraphPad Software, Inc., San Diego, Calif.): ν=ν0/[1+(I/K′)] where ν is the reaction rate, ν0 is the uninhibited reaction rate, I is the inhibitor concentration and K′ is the apparent inhibition constant.
Compounds of the invention were tested in this assay and found to have pKi values at human NEP as follows.

Structures are written as SMILES.

T1 sequence (P08473 52-750 limits assumed): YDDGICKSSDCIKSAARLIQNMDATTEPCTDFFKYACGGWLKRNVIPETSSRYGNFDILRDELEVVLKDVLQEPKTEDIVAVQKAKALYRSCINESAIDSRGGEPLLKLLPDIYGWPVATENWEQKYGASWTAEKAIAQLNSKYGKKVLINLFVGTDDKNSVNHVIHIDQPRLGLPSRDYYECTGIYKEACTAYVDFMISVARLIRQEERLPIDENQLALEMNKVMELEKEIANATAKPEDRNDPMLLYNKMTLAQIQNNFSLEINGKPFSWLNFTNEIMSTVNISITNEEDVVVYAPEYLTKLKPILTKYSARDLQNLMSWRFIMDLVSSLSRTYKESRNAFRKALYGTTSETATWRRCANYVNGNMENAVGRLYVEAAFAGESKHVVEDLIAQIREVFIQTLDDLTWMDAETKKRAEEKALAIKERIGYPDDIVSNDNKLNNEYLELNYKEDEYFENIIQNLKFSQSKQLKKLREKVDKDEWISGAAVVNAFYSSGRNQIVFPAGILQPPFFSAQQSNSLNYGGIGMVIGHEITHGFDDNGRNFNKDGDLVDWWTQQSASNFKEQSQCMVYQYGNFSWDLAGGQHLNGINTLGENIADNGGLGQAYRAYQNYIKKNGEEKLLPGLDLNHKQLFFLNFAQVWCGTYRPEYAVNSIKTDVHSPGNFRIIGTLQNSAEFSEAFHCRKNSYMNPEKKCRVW

For orientation: Ki means a measure of affinity in units of concentration, obtained from inhibition or displacement. Take `CCC(=O)C(=O)N[C@H](Cc1ccc(-c2cccc(Cl)c2)cc1)C[C@@H](O)C(=O)O` [Example 1, (2R,4R)-5-(3′-Chlorobiphenyl-4-yl)-2-hydroxy-4-(2-oxobutyrylamino)pentanoic Acid]: the inhibition constant Ki was 1 to 10 nM.

For the compound `CC(C)CC(=O)C(=O)N[C@H](Cc1ccc(-c2cccc(Cl)c2)cc1)C[C@@H](O)C(=O)O` [Example 2-1, (2R,4R)-5-(3′-Chloro-biphenyl-4-yl)-2-hydroxy-4-(4-methyl-2-oxo-pentanoylamino)-pentanoic acid], the Ki was 1 to 10 nM.

For `O=C(Cc1ccccc1)C(=O)N[C@H](Cc1ccc(-c2cccc(Cl)c2)cc1)C[C@@H](O)C(=O)O` [Example 2-2, (2R,4R)-5-(3′-Chloro-biphenyl-4-yl)-2-hydroxy-4-(2-oxo-3-phenyl-propionylamino)-pentanoic acid], the inhibitory constant (Ki) is 1 to 10 nM.

Consider `O=C(N[C@H](Cc1ccc(-c2cccc(Cl)c2)cc1)C[C@@H](O)C(=O)O)C(=O)N1CCC[C@H]1CO` [Example 3, (2R,4R)-5-(3′-Chlorobiphenyl-4-yl)-2-hydroxy-4-[2-((S)-2-hydroxymethylpyrrolidin-1-yl)-2-oxo-acetylamino]pentanoic Acid], for which the inhibition constant (Ki) was not above 1 nM.

As for `O=C(NC1CCCC1)C(=O)N[C@H](Cc1ccc(-c2cccc(Cl)c2)cc1)C[C@@H](O)C(=O)O` [Example 4-1, (2R,4R)-5-(3′-Chlorobiphenyl-4-yl)-4-(cyclopentylaminooxalylamino)-2-hydroxypentanoic acid], the inhibitory constant (Ki) is 10 to 31.6 nM.

For `O=C(Nc1ccc(Br)nc1)C(=O)N[C@H](Cc1ccc(-c2cccc(Cl)c2)cc1)C[C@@H](O)C(=O)O` [Example 4-2, (2R,4R)-4-[(6-Bromopyridin-3-ylaminooxalyl)amino]-5-(3′-chlorobiphenyl-4-yl)-2-hydroxypentanoic acid], the inhibition constant Ki was 10 to 31.6 nM.

For the compound `O=C(Nc1ccncc1)C(=O)N[C@H](Cc1ccc(-c2cccc(Cl)c2)cc1)C[C@@H](O)C(=O)O` [Example 4-3, (2R,4R)-5-(3′-Chlorobiphenyl-4-yl)-2-hydroxy-4-[(pyridin-4-ylaminooxalyl)-amino]-pentanoic acid], the inhibition constant (Ki) was 10 to 31.6 nM.

As to `Cc1ccncc1NC(=O)C(=O)N[C@H](Cc1ccc(-c2cccc(Cl)c2)cc1)C[C@@H](O)C(=O)O` [Example 4-4, (2R,4R)-5-(3′-Chlorobiphenyl-4-yl)-2-hydroxy-4-[(4-methylpyridin-3-ylaminooxalyl)amino]pentanoic acid], the inhibition constant Ki is 1 to 10 nM.

In the case of `O=C(NOCc1ccccc1)C(=O)N[C@H](Cc1ccc(-c2cccc(Cl)c2)cc1)C[C@@H](O)C(=O)O` [Example 4-5, (2R,4R)-4-(Benzyloxyaminooxalylamino)-5-(3′-chlorobiphenyl-4-yl)-2-hydroxy-pentanoic acid], the Ki was 10 to 31.6 nM.

On to `CONC(=O)C(=O)N[C@H](Cc1ccc(-c2cccc(Cl)c2)cc1)C[C@@H](O)C(=O)O` [Example 4-6, (2R,4R)-5-(3′-Chlorobiphenyl-4-yl)-2-hydroxy-4-(methoxyaminooxalylamino)-pentanoic acid], for which the Ki is 1 to 10 nM.

For the compound `O=C(NC1CONC1=O)C(=O)N[C@H](Cc1ccc(-c2cccc(Cl)c2)cc1)C[C@@H](O)C(=O)O` (stereo partly drawn) [Example 4-7, (2R,4R)-5-(3′-Chlorobiphenyl-4-yl)-2-hydroxy-4-[(3-oxo-isoxazolidin-4-ylaminooxalyl)-amino]pentanoic acid], the Ki is 1 to 10 nM.

As for `O=C(N[C@H](Cc1ccc(-c2cccc(Cl)c2)cc1)C[C@@H](O)C(=O)O)C(=O)NN1CCOCC1` [Example 4-8, (2R,4R)-5-(3′-Chlorobiphenyl-4-yl)-2-hydroxy-4-[(morpholin-4-ylaminooxalyl)-amino]pentanoic acid], the inhibition constant Ki is 10 to 31.6 nM.

Regarding `O=C(N[C@H](Cc1ccc(-c2cccc(Cl)c2)cc1)C[C@@H](O)C(=O)O)C(=O)N(O)c1ccccc1` [Example 4-9, (2R,4R)-5-(3′-Chlorobiphenyl-4-yl)-2-hydroxy-4-[(hydroxyphenylaminooxalyl)-amino]pentanoic acid], the pKi is listed as 8.0-9.0.

With `CN(O)C(=O)C(=O)N[C@H](Cc1ccc(-c2cccc(Cl)c2)cc1)C[C@@H](O)C(=O)O` [Example 4-10, (2R,4R)-5-(3′-Chlorobiphenyl-4-yl)-2-hydroxy-4-[(hydroxymethylaminooxalyl)-amino]pentanoic acid], the pKi is given as 7.5-8.0.

As for `CN(C)C(=O)C(=O)N[C@H](Cc1ccc(-c2cccc(Cl)c2)cc1)C[C@@H](O)C(=O)O` [Example 4-11, (2R,4R)-5-(3′-Chlorobiphenyl-4-yl)-4-(dimethylaminooxalylamino)-2-hydroxy-pentanoic acid], the Ki was 10 to 31.6 nM.

As to `CON(C)C(=O)C(=O)N[C@H](Cc1ccc(-c2cccc(Cl)c2)cc1)C[C@@H](O)C(=O)O` [Example 4-12, (2R,4R)-5-(3′-Chlorobiphenyl-4-yl)-2-hydroxy-4-[(methoxymethylaminooxalyl)-amino]pentanoic acid], the Ki is 1 to 10 nM.

For `O=C(N[C@H](Cc1ccc(-c2cccc(Cl)c2)cc1)C[C@@H](O)C(=O)O)C(=O)N1CC(O)C1` [Example 4-13, (2R,4R)-5-(3′-Chlorobiphenyl-4-yl)-2-hydroxy-4-[2-(3-hydroxyazetidin-1-yl)-2-oxo-acetylamino]pentanoic acid], the Ki was 1 to 10 nM.

Regarding `O=C(N[C@H](Cc1ccc(-c2cccc(Cl)c2)cc1)C[C@@H](O)C(=O)O)C(=O)N1CC(F)(F)C1` [Example 4-14, (2R,4R)-5-(3′-Chlorobiphenyl-4-yl)-4-[2-(3,3-difluoroazetidin-1-yl)-2-oxo-acetylamino]-2-hydroxypentanoic acid], the inhibition constant Ki is 10 to 31.6 nM.

Take `CS(=O)(=O)C1CCN(C(=O)C(=O)N[C@H](Cc2ccc(-c3cccc(Cl)c3)cc2)C[C@@H](O)C(=O)O)C1` (stereo partly drawn) [Example 4-15, (2R,4R)-5-(3′-Chlorobiphenyl-4-yl)-2-hydroxy-4-[2-(3-methanesulfonyl-pyrrolidin-1-yl)-2-oxo-acetylamino]pentanoic acid]: the Ki was 1 to 10 nM.

Regarding `O=C(N[C@H](Cc1ccc(-c2cccc(Cl)c2)cc1)C[C@@H](O)C(=O)O)C(=O)N1CCC[C@@H]1CO` [Example 4-16, (2R,4R)-5-(3′-Chlorobiphenyl-4-yl)-2-hydroxy-4-[2-((R)-2-hydroxymethyl-pyrrolidin-1-yl)-2-oxo-acetylamino]pentanoic acid], the Ki was 1 to 10 nM.

With `NC(=O)C1CCN(C(=O)C(=O)N[C@H](Cc2ccc(-c3cccc(Cl)c3)cc2)C[C@@H](O)C(=O)O)C1` (stereo partly drawn) [Example 4-17, (2R,4R)-4-[2-(3-Carbamoylpyrrolidin-1-yl)-2-oxo-acetylamino]-5-(3′-chloro-biphenyl-4-yl)-2-hydroxypentanoic acid], the Ki is 10 to 31.6 nM.

As for `O=C(N[C@H](Cc1ccc(-c2cccc(Cl)c2)cc1)C[C@@H](O)C(=O)O)C(=O)N1CCC(O)CC1` [Example 4-18, (2R,4R)-5-(3′-Chlorobiphenyl-4-yl)-2-hydroxy-4-[2-(4-hydroxy-piperidin-1-yl)-2-oxo-acetylamino]pentanoic acid], the inhibitory constant (Ki) was not above 1 nM.

As to `COCC1CCN(C(=O)C(=O)N[C@H](Cc2ccc(-c3cccc(Cl)c3)cc2)C[C@@H](O)C(=O)O)CC1` [Example 4-19, (2R,4R)-5-(3′-Chlorobiphenyl-4-yl)-2-hydroxy-4-[2-(4-methoxymethyl-piperidin-1-yl)-2-oxo-acetylamino]pentanoic acid], the inhibition constant (Ki) is 10 to 31.6 nM.

`O=C(N[C@H](Cc1ccc(-c2cccc(Cl)c2)cc1)C[C@@H](O)C(=O)O)C(=O)N1CCC(CO)CC1` [Example 4-20, (2R,4R)-5-(3′-Chlorobiphenyl-4-yl)-2-hydroxy-4-[2-(4-hydroxymethyl-piperidin-1-yl)-2-oxo-acetylamino]pentanoic acid]: the Ki is not above 1 nM.

Turning to `O=C(N[C@H](Cc1ccc(-c2cccc(Cl)c2)cc1)C[C@@H](O)C(=O)O)C(=O)N1CCC[C@@H](O)C1` [Example 4-21, (2R,4R)-5-(3′-Chlorobiphenyl-4-yl)-2-hydroxy-4-[2-((R)-3-hydroxy-piperidin-1-yl)-2-oxo-acetylamino]pentanoic acid], the Ki was 1 to 10 nM.

With `CC1(O)CCN(C(=O)C(=O)N[C@H](Cc2ccc(-c3cccc(Cl)c3)cc2)C[C@@H](O)C(=O)O)CC1` [Example 4-22, (2R,4R)-5-(3′-Chlorobiphenyl-4-yl)-2-hydroxy-4-[2-(4-hydroxy-4-methyl-piperidin-1-yl)-2-oxo-acetylamino]pentanoic acid], the inhibitory constant (Ki) was 1 to 10 nM.

As for `O=C(N[C@H](Cc1ccc(-c2cccc(Cl)c2)cc1)C[C@@H](O)C(=O)O)C(=O)N1CCC(c2ccncc2)CC1` [Example 4-23, (2R,4R)-5-(3′-Chlorobiphenyl-4-yl)-2-hydroxy-4-[2-oxo-2-(3,4,5,6-tetrahydro-2H-[4,4′]bipyridinyl-1-yl)-acetylamino]pentanoic acid], the Ki is 10 to 31.6 nM.
